# Where “and” joins values, the source holds several entries; their conditions need not be identical. Equal values may be shown once.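 GI50 marks 50% less growth. Definition used: TGI = concentration required for complete inhibition of growth.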
# Experiments:
# Assay in all cases: inhibition of tumour cell growth, NCI panel, 384-well format
# [1] = system: NCI-H23 lung
# [2] = system: SK-MEL-28 melanoma
# [3] = system: COLO 205 colon
# [4] = system: MDA-MB-231 breast
# [5] = system: HOP-92 NSCLC
# [6] = system: HL-60(TB) leukemia
# [7] = system: SF-539 CNS
# [8] = system: MCF7 breast
# [9] = system: SR leukemia
# [10] = system: SNB-75 CNS
# [11] = system: SW-620 colon
# [12] = system: CAKI-1 renal
# [13] = system: RXF 393 renal
# [14] = system: NCI-H322M lung
# [15] = system: HT29 colon
# [16] = system: HOP-62 NSCLC
# [17] = system: A549 NSCLC
# [18] = system: SF-295 CNS
# [19] = system: RPMI-8226 leukemia
# [20] = system: HS 578T breast
# [21] = system: OVCAR-8 ovarian
# [22] = system: SF-268 CNS
# [23] = system: MALME-3M melanoma
# [24] = system: BT-549 breast
# [25] = system: KM12 colon
# [26] = system: NCI-H226 lung
# [27] = system: M14 melanoma
# [28] = system: SK-MEL-5 melanoma
# [29] = system: SN12C renal
# [30] = system: MOLT-4 leukemia
# [31] = system: UACC-257 melanoma
# [32] = system: HCT-116 colon
# [33] = system: MDA-MB-435 melanoma
# [34] = system: SK-MEL-2 melanoma
# [35] = system: 786-0 renal
# [36] = system: A498 renal
# [37] = system: LOX IMVI melanoma
# [38] = system: NCI/ADR-RES ovarian
# [39] = system: ACHN renal
# [40] = system: OVCAR-5 ovarian
# [41] = system: U251 glioblastoma
# [42] = system: HCC-2998 colon
# [43] = system: NCI-H460 NSCLC
# [44] = system: K-562 leukemia
# [45] = system: IGROV1 ovarian
# [46] = system: DU-145 prostate
# [47] = system: SK-OV-3 ovarian
# [48] = system: TK-10 renal
# [49] = system: EKVX NSCLC
# [50] = system: UACC-62 melanoma
# [51] = system: PC-3 prostate
# [52] = system: UO-31 renal
# [53] = system: HCT-15 colon
# [54] = system: NCI-H522 lung
# [55] = system: T-47D breast
# [56] = system: SNB-19 CNS
# [57] = system: OVCAR-3 ovarian
# [58] = system: OVCAR-4 ovarian
# [59] = system: MDA-MB-468 breast
structure (smiles),measurement,setting,value
Cc1cc(Nc2ncc(F)c(N[C@H]3[C@@H](C(N)=O)[C@@H]4C=C[C@H]3C4)n2)ccc1N1CCN(C)CC1,GI50,[1],35.9 nM
same,TGI,[1],1160 nM
same,GI50,[2],1210 nM
same,TGI,[2],2550 nM
same,GI50,[3],< 10 nM
same,TGI,[3],< 10 nM
same,GI50,[4],26 nM
same,TGI,[4],1570 nM
same,GI50,[5],15.6 nM
same,TGI,[5],184 nM
same,GI50,[6],< 10 nM
same,TGI,[6],1030 nM
same,GI50,[7],24.8 nM
same,TGI,[7],138 nM
same,GI50,[8],436 nM
same,TGI,[8],2140 nM
same,GI50,[9],< 10 nM
same,TGI,[9],< 10 nM
same,GI50,[10],15.2 nM
same,TGI,[10],119 nM
same,GI50,[11],26.2 nM
same,TGI,[11],1500 nM
same,GI50,[12],< 10 nM
same,TGI,[12],1200 nM
same,GI50,[13],30.5 nM
same,TGI,[13],294 nM
same,GI50,[14],766 nM
same,TGI,[14],2260 nM
same,GI50,[15],44.4 nM
same,TGI,[15],1140 nM
same,GI50,[16],25 nM
same,TGI,[16],237 nM
same,GI50,[17],20.1 nM
same,TGI,[17],3250 nM
same,GI50,[18],21.8 nM
same,TGI,[18],276 nM
same,GI50,[19],< 10 nM
same,TGI,[19],< 10 nM
same,GI50,[20],12.6 nM
same,TGI,[20],95.6 nM
same,GI50,[21],88 nM
same,TGI,[21],385 nM
same,GI50,[22],73.5 nM
same,TGI,[22],866 nM
same,GI50,[23],< 10 nM
same,TGI,[23],1340 nM
same,GI50,[24],14.6 nM
same,TGI,[24],51.5 nM
same,GI50,[25],173 nM
same,TGI,[25],1500 nM
same,GI50,[26],25.7 nM
same,TGI,[26],661 nM
same,GI50,[27],< 10 nM
same,TGI,[27],2100 nM
COCCNCCc1cccc(Nc2ncc3c(n2)-c2ccccc2C(c2ccccc2F)C3)c1 (configuration not stated),GI50,[28],1890 nM and 1860 nM
same,TGI,[28],3310 nM and 3280 nM
same,GI50,[1],1640 nM and 1740 nM
same,TGI,[1],3020 nM and 3130 nM
same,GI50,[2],1760 nM and 1830 nM
same,TGI,[2],3150 nM and 3240 nM
same,GI50,[29],1310 nM and 906 nM
same,TGI,[29],2600 nM and 2340 nM
same,GI50,[30],670 nM and 543 nM
same,TGI,[30],1950 nM and 1790 nM
same,GI50,[3],1760 nM and 1740 nM
same,TGI,[3],3170 nM and 3150 nM
same,GI50,[31],1540 nM and 1670 nM
same,TGI,[31],2900 nM and 3060 nM
same,GI50,[4],1630 nM and 1430 nM
same,TGI,[4],3000 nM and 2750 nM
same,GI50,[32],1490 nM and 1740 nM
same,TGI,[32],2860 nM and 3170 nM
same,GI50,[5],1550 nM and 1610 nM
same,TGI,[5],2900 nM and 2970 nM
same,GI50,[6],563 nM and 1950 nM
same,TGI,[6],1050 nM and 3390 nM
same,GI50,[7],1040 nM and 1550 nM
same,TGI,[7],2320 nM and 2910 nM
same,GI50,[8],1280 nM and 1450 nM
same,TGI,[8],2590 nM and 2820 nM
same,GI50,[33],1880 nM and 1910 nM
same,TGI,[33],3300 nM and 3340 nM
same,GI50,[34],1360 nM and 1410 nM
same,TGI,[34],2650 nM and 2730 nM
same,GI50,[9],255 nM and 168 nM
same,TGI,[9],421 nM and 358 nM
same,GI50,[35],1250 nM and 1500 nM
same,TGI,[35],2520 nM and 2850 nM
same,GI50,[36],1290 nM and 1430 nM
same,TGI,[36],2570 nM and 2760 nM
same,GI50,[10],1430 nM and 1540 nM
same,TGI,[10],2750 nM and 2880 nM
same,GI50,[11],1830 nM and 2290 nM
same,TGI,[11],3240 nM and 3770 nM
same,GI50,[37],1360 nM and 1490 nM
same,TGI,[37],2650 nM and 2830 nM
same,GI50,[38],1800 nM and 1890 nM
same,TGI,[38],3210 nM and 3380 nM
same,GI50,[12],1310 nM and 1000 nM
same,TGI,[12],2610 nM and 2350 nM
same,GI50,[39],1540 nM and 1300 nM
same,TGI,[39],2890 nM and 2600 nM
same,GI50,[13],612 nM and 1260 nM
same,TGI,[13],1840 nM and 2520 nM
same,GI50,[40],1790 nM and 1800 nM
same,TGI,[40],3200 nM and 3230 nM
same,GI50,[14],1720 nM and 1700 nM
same,TGI,[14],3110 nM and 3090 nM
same,GI50,[41],1670 nM and 1980 nM
same,TGI,[41],3070 nM and 3440 nM
same,GI50,[42],1190 nM and 1540 nM
same,TGI,[42],2440 nM and 2900 nM
same,GI50,[43],657 nM and 1300 nM
same,TGI,[43],1860 nM and 2650 nM
same,GI50,[44],186 nM and 75.8 nM
same,TGI,[44],402 nM and 214 nM
same,GI50,[45],1160 nM and 1190 nM
same,TGI,[45],2390 nM and 2430 nM
same,GI50,[46],1680 nM and 1760 nM
same,TGI,[46],3070 nM and 3170 nM
same,GI50,[47],1350 nM and 1420 nM
same,TGI,[47],2650 nM and 2760 nM
same,GI50,[15],1520 nM and 1580 nM
same,TGI,[15],2890 nM and 2980 nM
same,GI50,[48],1680 nM and 1620 nM
same,TGI,[48],3060 nM and 2990 nM
same,GI50,[16],1780 nM
same,TGI,[16],3180 nM and 3190 nM
same,GI50,[17],1780 nM and 1660 nM
same,TGI,[17],3210 nM and 3070 nM
same,GI50,[49],1550 nM
same,TGI,[49],2910 nM
same,GI50,[18],1740 nM and 1820 nM
same,TGI,[18],3140 nM and 3230 nM
same,GI50,[19],683 nM and 701 nM
same,TGI,[19],1860 nM and 1940 nM
same,GI50,[50],1770 nM and 1650 nM
same,TGI,[50],3180 nM and 3040 nM
same,GI50,[51],1590 nM and 1400 nM
same,TGI,[51],2960 nM and 2720 nM
same,GI50,[52],1780 nM and 1740 nM
same,TGI,[52],3180 nM and 3140 nM
same,GI50,[20],1300 nM and 1590 nM
same,TGI,[20],2570 nM and 2940 nM
same,GI50,[21],1800 nM and 1680 nM
same,TGI,[21],3220 nM and 3080 nM
same,GI50,[53],1200 nM and 1300 nM
same,TGI,[53],2480 nM and 2620 nM
same,GI50,[54],1670 nM and 1320 nM
same,TGI,[54],3050 nM and 2610 nM
same,GI50,[22],1600 nM and 1650 nM
same,TGI,[22],2960 nM and 3030 nM
same,GI50,[23],1900 nM and 2030 nM
same,TGI,[23],3310 nM and 3470 nM
same,GI50,[55],1610 nM and 1710 nM
same,TGI,[55],2970 nM and 3100 nM
same,GI50,[56],1920 nM and 1930 nM
same,TGI,[56],3350 nM and 3370 nM
same,GI50,[57],1330 nM and 1370 nM
same,TGI,[57],2630 nM and 2680 nM
same,GI50,[24],1340 nM and 1690 nM
same,TGI,[24],2630 nM and 3080 nM
same,GI50,[25],1560 nM and 1740 nM
same,TGI,[25],2920 nM and 3150 nM
same,GI50,[26],1220 nM and 1500 nM
same,TGI,[26],2470 nM and 2840 nM
same,GI50,[27],1850 nM and 2140 nM
same,TGI,[27],3260 nM and 3610 nM
same,GI50,[58],1330 nM and 1340 nM
same,TGI,[58],2630 nM and 2640 nM
same,GI50,[59],2040 nM and 1950 nM
same,TGI,[59],3470 nM and 3370 nM
